# Assay results from US8236984B2, “Compound and use thereof in the treatment of amyloidosis” (Pentraxin Therapeutics Ltd., priority 2007, dated 2012).
# “Also recorded” adds a separate entry of the source.
# How the values were obtained:
# transthyretin = molecular target: T1, transthyretin (Homo sapiens, UniProt P02766); assay: Intrinsic fluorescence quenching of transthyretin by ligand titration; type: binding; conditions: 1 μM transthyretin, PBS pH 7.4, ligand 0-2 μM, excitation 280 nm, 20° C.
# T1 construct: Native tetrameric transthyretin was purified from fractionated human plasma; from tissue; host or cells: human plasma
# Procedure: 3.2.1. Binding of 4ajm15 and mds84 by transthyretin. The interactions between the ligands 4ajm15 or mds84 and transthyretin were studied by monitoring intrinsic fluorescence in the emission range 300-500 nm on excitation at 280 nm using a Perkin Elmer LS55 fluorimeter and a standard 1 cm path length quartz cell at 20° C. Quenching of tryptophan was achieved by titrating 1 μM transthyretin in PBS, pH 7.4 with increasing concentrations of each ligand in the range 0-2 μM (FIG. 2A). […] At the same time the changes in 4ajm15 fluorescence upon binding to the protein were monitored in the emission range 400-600 nm and excitation at 340 nm that is the wavelength specific for 4ajm15 excitation. In these conditions, accumulation of the spectra highlights an isosbestic point at 483 nm (FIG. 2B). The same results were achieved by using mds84 (not shown). The results of the titration of 4ajm15 in presence and absence of transthyretin support a model of binding in which both the binding sites are simultaneously occupied by the palindromic ligand.
# In each case increasing concentrations of ligand (0-2 μM) were added to 1 μM protein. The arrow in FIG. 2B indicates the isosbestic point at 483 nm occurring on formation of the protein ligand complex. […] The percent quenching represents ΔF/F0 where F0 is fluorescence intensity prior to the addition of ligands and AF is the decrease in fluorescence at a given ligand concentration.
# wild type transthyretin [1] = molecular target: T2, wild type transthyretin (Homo sapiens, UniProt P02766); assay: Displacement of 125I-T4 from transthyretin in whole serum; type: binding; conditions: mean
# Description: 3.2.3.2. Quantitative studies in serum. […] The immunoprecipitate was recovered by centrifugation, washed twice with 0.1 M Tris, 0.1 M NaCl, pH 8.0 and counted.
# wild type transthyretin [2] = molecular target: T2, wild type transthyretin; assay: Inhibition of transthyretin aggregation at acidic pH (turbidity at 400 nm); type: biochemical; design: isolated from pooled normal human plasma, was obtained from Scipac; purchased Scipac Ltd, Sittingbourne, Kent, UK; host or cells: pooled normal human plasma; conditions: pH 4.4, 3 d 37° C.
# Procedure: 3.3.1 Wild type transthyretin. The purified wild type transthyretin (liquid and lyophilised) used in these experiments, isolated from pooled normal human plasma, was obtained from Scipac, (Sittingbourne, Kent, UK). Protein concentration was determined by absorbance at 280 nm after correction for light scattering at 320 nm using the absorption coefficient E1 cm^1%=14.0. […] Nano electrospray ionisation mass spectrometry confirmed the presence of normal and cysteinylated transthyretin monomers (Terazaki et al, 1998) under denaturing conditions, and solvent-bound transthyretin tetramer (Nettleton et al, 1998) under mild desolvation conditions.
# 3.3.2 Inhibition of transthyretin aggregation by 4ajm15: In pilot experiments, transthyretin aggregates were formed from wild type transthyretin (3.6 μM) after incubation at acidic pH for 3 d at 37° C. (Colon and Kelly, 1992). The efficacy of 4ajm15 as an inhibitor of transthyretin aggregate formation was then compared with other transthyretin ligand compounds. […] After 30 min at 37° C., the pH was adjusted to pH 4.4 (with 0.2 M sodium acetate buffer pH 4.0), and the ˜1 ml mixtures were incubated unstirred for 3 d at 37° C.
# Using the same method the activities of mds84 and 4ajm15 as inhibitors of the aggregation of both wild type transthyretin and the most aggressively aggregating transthyretin variant, L55P, were evaluated in triplicate with both proteins at 3.6 μM and with one (3.6 μM) or 3 equivalents (10.8 μM) of each ligand. Wild type transthyretin was studied at pH 4.4 and L55P at pH 5.0. […] Mean values and standard deviations are shown in Table 2 and in FIG. 4, where results with 1:1 molar ratio are shown cross hatched and 3:1 molar ratio in open bars.
# wild type transthyretin [3] = molecular target: T2, wild type transthyretin; assay: Mass spectrometric analysis of ligand dissociation under increasing cone voltage; type: binding; design: made in house
# Description: 4.3. Mass spectrometric analysis of dissociation of 4ajm15 from wild type and amyloidogenic variant transthyretin. ESMS spectra were acquired under increasing cone voltage conditions to induce stepwise dissociation of the ligand from wild type transthyretin and amyloidogenic variants V30M and L55P transthyretin. As the cone voltage increases splitting becomes apparent in the tetramer peaks, corresponding to apo (protein alone) and holo (protein+ligand) transthyretin as ligand begins to dissociate.
# L55P transthyretin and [^15N, ^13C] wild type transthyretin in a 2 fold excess of 4ajm15. […] In spectrum β the onset of 4ajm15 dissociation from wild type tetramer is observed (a) while no ligand dissociation is observed from L55P transthyretin. Dissociation from wild type transthyretin progresses with increasing collisional energy in spectrum γ, but it is not until spectrum δ, where approximately 50% of the wild type is apo, that ligand dissociation from L55P transthyretin is observed (a).
# V30M transthyretin and [^15N, ^13C] wild type transthyretin in a 2 fold excess of ligand. In A, at the onset of 4ajm15 dissociation (spectrum β) the peak height corresponding to apo V30M transthyretin is lower than that for wild type (labelled a and a respectively) for each charge state. At high energy level (γ), ligand dissociation from wild type is complete while a proportion of […] V30M remains (h). […]
SMILES,intrinsic fluorescence of transthyretin remaining after titration (transthyretin),IC50 (wild type transthyretin [1]),"Aggregation of transthyretin, Mean (1:1) (wild type transthyretin [2]; wild type 3.6 μM, ligand 3.6 μM)","Aggregation of transthyretin, Mean (3:1) (wild type transthyretin [2]; wild type 3.6 μM, ligand 10.8 μM)","peak height of apo wild type transthyretin at onset of dissociation (spectrum β) (wild type transthyretin [3]; equimolar 4.4 μM with V30M, 2 fold excess of ligand)","relative binding avidities for ligand among transthyretin forms (wild type transthyretin [3]; wild type versus V30M and L55P, increasing cone voltage)","transthyretin aggregate formation in the presence of ligand (wild type transthyretin [2]; wild type, in words)"
"O=C(O)c1ccccc1Nc1cc(Cl)c(OCCCCCCCOc2c(Cl)cc(Nc3ccccc3C(=O)O)cc2Cl)c(Cl)c1 [mds84, 2,2′-(4,4′-(heptane-1,7-diylbis(oxy))bis(3,5-dichloro-4,1-phenylene))bis(azanediyl)dibenzoic acid]",40%,11.9 µM,1.7 per cent of control with DMSO alone,2 per cent of control with DMSO alone,,,
"O=C(O)c1ccccc1Nc1cc(Cl)c(OCCCCCCCCCCCOc2c(Cl)cc(Nc3ccccc3C(=O)O)cc2Cl)c(Cl)c1 [4ajm15, 2,2′-(4,4′-(undecane-1,11-diylbis(oxy))bis(3,5-dichloro-4,1-phenylene))bis(azanediyl)dibenzoic acid]",40%,27 µM,,,~75%,wild type transthyretin<V30M transthyretin<L55P transthyretin,dramatically reduced; also recorded: identical to those with mds84
